Drawing on US20110306597A1, “Nicotinamide Derivatives” (priority 2008, published 2011), this text covers IC50 for 19 molecules.

By IC50 is commonly meant the concentration that gives 50% inhibition.

For the test, the target named is human recombinant H-PGDS (Homo sapiens, UniProt O60760). Kind of test: Fluorescence Intensity h-PGDS TBA Enzyme Assay. The conditions noted are these: 1:175,000 human recombinant H-PGDS, highest inhibitor concentration typically 1 μM. The format is biochemical. In a few lines: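 Recombinant human H-PGDS preincubated 10 min at room temperature with inhibitor in 100 mM Tris pH 8.0, 100 μM MgCl2, 2.5 mM glutathione, 0.5% DMSO; 5.0 μM PGH2 added, stopped after 42 s with FeCl2/citric acid. Remaining PGH2 measured as MDA–TBA fluorescence (ex 530/em 565 nm); IC50 by 4-parameter fit, 11 concentrations.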
Chain of human recombinant H-PGDS (O60760 whole entry): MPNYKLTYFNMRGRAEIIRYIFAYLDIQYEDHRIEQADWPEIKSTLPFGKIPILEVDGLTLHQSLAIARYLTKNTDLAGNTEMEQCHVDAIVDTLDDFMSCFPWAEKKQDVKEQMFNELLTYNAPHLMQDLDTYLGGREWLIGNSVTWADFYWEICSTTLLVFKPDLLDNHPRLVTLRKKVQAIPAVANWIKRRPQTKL
`O=C(CNC(=O)c1ccc(-c2cccc(F)c2)nc1)OCc1ccccc1` [Example 418, Benzyl N-{[6-(3-fluorophenyl)pyridin-3-yl]carbonyl}glycinate]: the IC50 is 96.1 nM.

Turning to `O=C(Nc1cccnc1)c1ccc(-c2cccc(F)c2)nc1` [Example 419, 6-(3-Fluorophenyl)-N-pyridin-3-ylnicotinamide], the IC50 came to 3.94 nM.

Take `CS(=O)(=O)c1ccc(CNC(=O)c2ccc(-c3cccc(F)c3)nc2)cc1` [Example 420, 6-(3-Fluorophenyl)-N-[4-(methylsulfonyl)benzyl] nicotinamide]: the IC50 turned out to be 34.1 nM.

For `O=C(Nc1ccccc1)c1ccc(-c2cccc(F)c2)nc1` [Example 421, 6-(3-Fluorophenyl)-N-phenylnicotinamide], the IC50 was found to be 7.37 nM.

Regarding `O=C(NCCN1CCCC1)c1ccc(-c2cccc(F)c2)nc1` [Example 422, 6-(3-Fluorophenyl)-N-(2-pyrrolidin-1-ylethyl)nicotinamide], the half-inhibitory concentration (IC50) was found to be 159 nM.

With `CC(NC(=O)c1ccc(-c2cccc(F)c2)nc1)c1ccccc1` (stereo not shown) [Example 423, 6-(3-Fluorophenyl)-N-(1-phenylethyl)nicotinamide], the IC50 was found to be 8.76 nM.

Take `CNS(=O)(=O)c1ccc(CNC(=O)c2ccc(-c3cccc(F)c3)nc2)cc1` [Example 424, 6-(3-Fluorophenyl)-N-{4-[(methylamino)sulfonyl]benzyl}nicotinamide]: the IC50 turned out to be 67.8 nM.

Take `CCC(C)NC(=O)c1ccc(-c2cccc(F)c2)nc1` (stereo not shown) [Example 426, N-sec-Butyl-6-(3-fluorophenyl)nicotinamide]: the IC50 turned out to be 111 nM.

`CCCCCNC(=O)c1ccc(-c2cccc(F)c2)nc1` [Example 427, 6-(3-Fluorophenyl)-N-pentylnicotinamide]: the IC50 worked out at 43.8 nM.

As for `O=C(NCc1ccco1)c1ccc(-c2cccc(F)c2)nc1` [Example 428, 6-(3-Fluorophenyl)-N-(2-furylmethyl)nicotinamide], the IC50 was determined as 40.9 nM.

As to `O=C(NCCNc1ccccc1)c1ccc(-c2cccc(F)c2)nc1` [Example 429, N-(2-Anilinoethyl)-6-(3-fluorophenyl)nicotinamide], the IC50 came out at 21.8 nM.

`O=C(NCCc1cccs1)c1ccc(-c2cccc(F)c2)nc1` [Example 430, 6-(3-Fluorophenyl)-N-[2-(2-thienyl)ethyl]nicotinamide]: the IC50 was found to be 11.7 nM.

`O=C(NC1CCN(Cc2ccc(Cl)cc2)C1=O)c1ccc(-c2cccc(F)c2)nc1` (stereo not shown) [Example 431, N-[1-(4-Chlorobenzyl)-2-oxopyrrolidin-3-yl]-6-(3-fluorophenyl)nicotinamide]: the IC50 turned out to be 59 nM.

For the molecule `O=C(NCc1ccccc1)c1ccc(-c2cccc(F)c2)nc1` [Example 432, N-Benzyl-6-(3-fluorophenyl)nicotinamide], the IC50 was 14.9 nM.

Turning to `C[C@@H](CNC(=O)c1ccc(-c2cccc(F)c2)nc1)NC(=O)OCc1ccccc1` [Example 433, Benzyl [(1S)-2-({[6-(3-fluorophenyl)pyridin-3-yl]carbonyl}amino)-1-methylethyl]carbamate], the IC50 stood at 33.7 nM.

Regarding `COc1ccc(OCCNC(=O)c2ccc(-c3cccc(F)c3)nc2)cc1` [Example 434, 6-(3-Fluorophenyl)-N-[2-(4-methoxyphenoxy)ethyl] nicotinamide], the IC50 amounted to 101 nM.

Regarding `COc1cccc([C@H](C)NC(=O)c2ccc(-c3cccc(F)c3)nc2)c1` [Example 436, 6-(3-Fluorophenyl)-N-[(1S)-1-(3-methoxyphenyl)ethyl] nicotinamide], the IC50 was 6.12 nM.

Consider `C[C@H](CNC(=O)c1ccc(-c2cccc(F)c2)nc1)NC(=O)OCc1ccccc1` [Example 437, Benzyl [(1R)-2-({[6-(3-fluorophenyl)pyridin-3-yl]carbonyl}amino)-1-methylethyl]carbamate], for which the IC50 came to 54.3 nM.

In the case of `COc1ccccc1-c1nnc(CNC(=O)c2ccc(-c3cccc(F)c3)nc2)o1` [Example 439, 6-(3-Fluorophenyl)-N-{[5-(2-methoxyphenyl)-1,3,4-oxadiazol-2-yl]methyl}nicotinamide], the IC50 worked out at 20 nM.
